Reference: patent US6339716B1, “Method for determining viability of a myocardial segment” (Bioenergy Inc., priority 1999, dated 2002)

System: patients suspected of having stunned or hibernating myocardium
Assay: Dobutamine echocardiography, regional wall motion during D-Ribose or placebo infusion (randomized, double-blind, crossover clinical trial)
Type: in vivo
Conditions: during low-dose dobutamine infusion (5μ/kg/minute); D-Ribose 10% in water iv at 180 mg/kg/hour; 25 patients, 16 left ventricular segments each
Method: A single-center, randomized, double-blind placebo-controlled clinical trial was carried out to evaluate the safety and efficacy of D-Ribose on myocardial wall motion during echocardiographic examination in patients suspected of having stunned or hibernating myocardium. Patients were randomized into placebo and ribose groups according to a computer generated randomization schedule. The identity of the contents was blinded to the investigator. Patients were identified by initials. The selected study population was comprised of 25 patients (22 men and 3 women) with a mean age of 57+/−11 years. All had reduced left ventricular systolic function (mean ejection fraction 30+/−8%, range 18 to 48%). Twenty-two patients (88%) had prior myocardial infarction and only one subject was evaluated after recent (<4 weeks) infarction. […] Post-infusion images were recorded approximately eight minutes after discontinuation of dobutamine. […] Parasternal long and short-axis and apical two and four-chamber images were recorded on 0.5 inch videotape and digitally stored on floppy discs using a Nova MicroSonics DCR or Colorvue system (Mahwah, N.J.). […]

O=C[C@H](O)[C@H](O)[C@H](O)CO [D-Ribose]
segments in which wall motion improved: 65 segments
